What is called Ki is a dissociation constant, usually derived from enzyme kinetics or from competition with a known ligand.

The structures appear in SMILES notation.

The assay concerns the target T1, Human recombinant MMP-13 (Homo sapiens, UniProt P45452).
T1 construct: made in house; host or cells: baculovirus / insect cells
Nature of the assay: In vitro MMP inhibition analysis (fluorogenic peptide substrate cleavage), Ki. It counts as biochemical. As to conditions: Table 2. The essentials:
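Baculovirus-expressed full-length MMP-13 proenzyme was purified on heparin-agarose and zinc-chelate columns, then APMA-activated. It cleaved 4 μM MCA/Dpa fluorogenic peptide in 100 mM Tris-HCl, 100 mM NaCl, 10 mM CaCl2, 0.05% Brij-23, pH 7.5, for 1 h at room temperature (ex 330/em 420 nm). Ki came from Morrison-equation fits with substrate ≤Km, uncorrected.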
`O=C(NO)C1(S(=O)(=O)c2ccc(-c3cnccn3)cc2)CCOCC1` [Example 71]: the Ki turned out to be 1.73 nM.

On to `COCCN1CCC(C(=O)NO)(S(=O)(=O)c2ccc(-c3ccc(OCCN4CCCC4)cc3)cc2)CC1` [Example 72], for which the Ki is 2.25 nM.

For the molecule `O=C(NO)C1(S(=O)(=O)c2ccc(-c3ccc(CCO)cc3)cc2)CCOCC1` [Example 98], the Ki came out at 0.147 nM.

Take `CC(C)CCc1ccc(-c2ccc(S(=O)(=O)C3(C(=O)NO)CCOCC3)cc2)nc1` [Example 99]: the Ki is 0.052 nM.

As to `COC(C)CCOc1ccc(-c2ccc(S(=O)(=O)C3(C(=O)NO)CCOCC3)cc2)cc1C(F)(F)F` (stereo not shown) [Example 100], the Ki was determined as 9.4 nM.

With `CCCCCc1ccc(-c2ccc(S(=O)(=O)C3(C(=O)NO)CCOCC3)cc2)c(F)c1` [Example 101], the Ki was found to be 0.4 nM.

On to `COc1ccc(-c2ccc(S(=O)(=O)C3(C(=O)NO)CCOCC3)cc2)cc1F` [Example 102], for which the Ki was 0.075 nM.

On to `CC(C)Cc1ccc(-c2ccc(S(=O)(=O)C3(C(=O)NO)CCOCC3)cc2)nc1` [Example 103], for which the Ki worked out at 0.117 nM.

`O=C(NO)C1(S(=O)(=O)c2ccc(-c3ccc(-c4ccccc4)cc3)cc2)CCOCC1` [Example 104]: the Ki was 0.032 nM.

Consider `CCCCc1nc(-c2ccc(S(=O)(=O)C3(C(=O)NO)CCOCC3)cc2)no1` [Example 105], for which the Ki was 3.67 nM.

With `CC(C)CCOc1ccc(-c2ccc(S(=O)(=O)C3(C(=O)NO)CCOCC3)cc2)cc1` [Example 108], the Ki came to 0.199 nM.

As to `CCN1CCC(C(=O)NO)(S(=O)(=O)c2ccc(-c3ccc(OCCOC)c(F)c3)cc2)CC1` [Example 110], the Ki came to 0.144 nM.

Consider `CCN1CCC(C(=O)NO)(S(=O)(=O)c2ccc(-c3ccc(OCCOC)cc3)cc2)CC1` [Example 111], for which the Ki stood at 0.066 nM.

Regarding `COCCOc1ccc(-c2ccc(S(=O)(=O)C3(C(=O)NO)CCN(C4CC4)CC3)cc2)cc1F` [Example 112], the Ki amounted to 0.058 nM.

For the molecule `COCCOc1ccc(-c2ccc(S(=O)(=O)C3(C(=O)NO)CCN(C4CC4)CC3)cc2)cc1` [Example 113], the inhibition constant Ki turned out to be 0.031 nM.

In the case of `COCCOc1ccc(-c2ccc(S(=O)(=O)C3(C(=O)NO)CCN(CCOC)CC3)cc2)cc1F` [Example 114], the Ki was 0.042 nM.

With `COCCOc1ccc(-c2ccc(S(=O)(=O)C3(C(=O)NO)CCN(CCOC)CC3)cc2)cc1` [Example 115], the inhibition constant Ki is 0.025 nM.

As to `CCOCCOc1ccc(-c2ccc(S(=O)(=O)C3(C(=O)NO)CCN(CC)CC3)cc2)cc1` [Example 116], the Ki was determined as 0.05 nM.

For the molecule `CCOCCOc1ccc(-c2ccc(S(=O)(=O)C3(C(=O)NO)CCN(CCOC)CC3)cc2)cc1` [Example 117], the inhibition constant Ki was 0.037 nM.

The values are drawn from US20060074243A1, “Hydroxamic acid and amide compounds and their use as protease inhibitors” (Pharmacia Corporation, priority 2002, published 2006).
